Reference: PubChem BioAssay AID1963842 (Molecular Pharmacology Branch, DTP, NCI, 2024)

System: 677734-321-R-J1-PDC complex spheroid viability
Test: Anticancer human tumor 677734-321-R-J1-PDC patient-derived soft tissue sarcoma cell line growth inhibition [POLQ]
Settings: for IC50: curve of first compound; for viability, T/C: stronger effect = lower value
Method in brief: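 Growth inhibition in 3D: complex spheroids (tumor PDC, HUVEC, MSC) treated with POLQ inhibitor combinations; where Cmax unknown, highest tested concentration 10 microM, except SN-38 at 1 microM.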
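Note: spheroids exposed to compounds for one week.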
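Throughout, for viability, T/C: 100% = vehicle DMSO treated spheroids.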

For `CC(=O)O[C@H]1C(=O)[C@@]2(C)[C@H]([C@H](OC(=O)c3ccccc3)[C@]3(O)C[C@H](OC(=O)[C@H](O)[C@@H](NC(=O)c4ccccc4)c4ccccc4)C(C)=C1C3(C)C)[C@]1(OC(C)=O)CO[C@@H]1C[C@@H]2O` + Nc1ccc(C#CCN(C(=O)Cc2ncc(C(F)(F)F)cc2C(F)(F)F)c2ccc(F)cc2)nn1, the IC50 (second compound 0.0316 µM) was < 9.49 nM, the IC50 (second compound 0.1 µM) was < 9.49 nM and the IC50 (second compound 0.316 µM) was < 9.49 nM. The IC50 (second compound 1 µM) was < 9.49 nM, the IC50 (second compound 3.16 µM) was < 9.49 nM and the IC50 (second compound 10 µM) was < 9.49 nM. It also gave a viability, T/C (second compound 0.0316 µM, first compound 0.00949 µM) of 21.6%, a viability, T/C (second compound 0.0316 µM, first compound 0.03 µM) of 15% and a viability, T/C (second compound 0.0316 µM, first compound 0.0949 µM) of 13.9%. The viability, T/C (second compound 0.0316 µM, first compound 0.3 µM) was 14.6%, the viability, T/C (second compound 0.0316 µM, first compound 0.949 µM) was 14.9% and the viability, T/C (second compound 0.0316 µM, first compound 3 µM) was 17.6%. It also gave a viability, T/C (second compound 0.1 µM, first compound 0.00949 µM) of 32.9%, a viability, T/C (second compound 0.1 µM, first compound 0.03 µM) of 18.3% and a viability, T/C (second compound 0.1 µM, first compound 0.0949 µM) of 14.2%. It also gave a viability, T/C (second compound 0.1 µM, first compound 0.3 µM) of 13.9%, a viability, T/C (second compound 0.1 µM, first compound 0.949 µM) of 14.3% and a viability, T/C (second compound 0.1 µM, first compound 3 µM) of 16.1%. For the same molecule, the viability, T/C (second compound 0.316 µM, first compound 0.00949 µM) was 21.7%, the viability, T/C (second compound 0.316 µM, first compound 0.03 µM) was 17.9% and the viability, T/C (second compound 0.316 µM, first compound 0.0949 µM) was 14.7%. For the same molecule, the viability, T/C (second compound 0.316 µM, first compound 0.3 µM) was 11.6%, the viability, T/C (second compound 0.316 µM, first compound 0.949 µM) was 13.8% and the viability, T/C (second compound 0.316 µM, first compound 3 µM) was 15.7%. For the same molecule, the viability, T/C (second compound 1 µM, first compound 0.00949 µM) was 32.7%, the viability, T/C (second compound 1 µM, first compound 0.03 µM) was 17.1% and the viability, T/C (second compound 1 µM, first compound 0.0949 µM) was 16.6%. It also gave a viability, T/C (second compound 1 µM, first compound 0.3 µM) of 15%, a viability, T/C (second compound 1 µM, first compound 0.949 µM) of 13.3% and a viability, T/C (second compound 1 µM, first compound 3 µM) of 12.2%. For the same molecule, the viability, T/C (second compound 3.16 µM, first compound 0.00949 µM) was 34.1%, the viability, T/C (second compound 3.16 µM, first compound 0.03 µM) was 16.9% and the viability, T/C (second compound 3.16 µM, first compound 0.0949 µM) was 11.8%. For the same molecule, the viability, T/C (second compound 3.16 µM, first compound 0.3 µM) was 13.4%, the viability, T/C (second compound 3.16 µM, first compound 0.949 µM) was 13.5% and the viability, T/C (second compound 3.16 µM, first compound 3 µM) was 16.4%. The viability, T/C (second compound 10 µM, first compound 0.00949 µM) was 28.8%, the viability, T/C (second compound 10 µM, first compound 0.03 µM) was 16.4% and the viability, T/C (second compound 10 µM, first compound 0.0949 µM) was 12.6%. For the same molecule, the viability, T/C (second compound 10 µM, first compound 0.3 µM) was 13.4%, the viability, T/C (second compound 10 µM, first compound 0.949 µM) was 13% and the viability, T/C (second compound 10 µM, first compound 3 µM) was 16.8%.

`CC[C@@]1(O)C(=O)OCc2c1cc1n(c2=O)Cc2cc3c(CN(C)C)c(O)ccc3nc2-1` + Nc1ccc(C#CCN(C(=O)Cc2ncc(C(F)(F)F)cc2C(F)(F)F)c2ccc(F)cc2)nn1 gave an IC50 (second compound 0.0316 µM) of 19.9 nM, an IC50 (second compound 0.1 µM) of 21.2 nM and an IC50 (second compound 0.316 µM) of 22.1 nM. The IC50 (second compound 1 µM) was 22.6 nM, the IC50 (second compound 3.16 µM) was 22.4 nM and the IC50 (second compound 10 µM) was 22.1 nM. It also gave a viability, T/C (second compound 0.0316 µM, first compound 0.000316 µM) of 108%, a viability, T/C (second compound 0.0316 µM, first compound 0.001 µM) of 115% and a viability, T/C (second compound 0.0316 µM, first compound 0.00316 µM) of 117%. For the same molecule, the viability, T/C (second compound 0.0316 µM, first compound 0.01 µM) was 86.2%, the viability, T/C (second compound 0.0316 µM, first compound 0.0316 µM) was 25.9% and the viability, T/C (second compound 0.0316 µM, first compound 0.1 µM) was 15.3%. It also gave a viability, T/C (second compound 0.1 µM, first compound 0.000316 µM) of 99.3%, a viability, T/C (second compound 0.1 µM, first compound 0.001 µM) of 97.7% and a viability, T/C (second compound 0.1 µM, first compound 0.00316 µM) of 99.2%. The viability, T/C (second compound 0.1 µM, first compound 0.01 µM) was 87.3%, the viability, T/C (second compound 0.1 µM, first compound 0.0316 µM) was 30.3% and the viability, T/C (second compound 0.1 µM, first compound 0.1 µM) was 13%. The viability, T/C (second compound 0.316 µM, first compound 0.000316 µM) was 116%, the viability, T/C (second compound 0.316 µM, first compound 0.001 µM) was 105% and the viability, T/C (second compound 0.316 µM, first compound 0.00316 µM) was 90.4%. The viability, T/C (second compound 0.316 µM, first compound 0.01 µM) was 98.2%, the viability, T/C (second compound 0.316 µM, first compound 0.0316 µM) was 28.1% and the viability, T/C (second compound 0.316 µM, first compound 0.1 µM) was 14.9%. For the same molecule, the viability, T/C (second compound 1 µM, first compound 0.000316 µM) was 110%, the viability, T/C (second compound 1 µM, first compound 0.001 µM) was 99.9% and the viability, T/C (second compound 1 µM, first compound 0.00316 µM) was 103%. The viability, T/C (second compound 1 µM, first compound 0.01 µM) was 89.9%, the viability, T/C (second compound 1 µM, first compound 0.0316 µM) was 33.6% and the viability, T/C (second compound 1 µM, first compound 0.1 µM) was 12.8%. It also gave a viability, T/C (second compound 3.16 µM, first compound 0.000316 µM) of 102%, a viability, T/C (second compound 3.16 µM, first compound 0.001 µM) of 102% and a viability, T/C (second compound 3.16 µM, first compound 0.00316 µM) of 104%. For the same molecule, the viability, T/C (second compound 3.16 µM, first compound 0.01 µM) was 102%, the viability, T/C (second compound 3.16 µM, first compound 0.0316 µM) was 27.7% and the viability, T/C (second compound 3.16 µM, first compound 0.1 µM) was 17.6%. The viability, T/C (second compound 10 µM, first compound 0.000316 µM) was 135%, the viability, T/C (second compound 10 µM, first compound 0.001 µM) was 106% and the viability, T/C (second compound 10 µM, first compound 0.00316 µM) was 92.5%. For the same molecule, the viability, T/C (second compound 10 µM, first compound 0.01 µM) was 83.7%, the viability, T/C (second compound 10 µM, first compound 0.0316 µM) was 29.4% and the viability, T/C (second compound 10 µM, first compound 0.1 µM) was 13.8%.
